Results as given in patent US12723236B2, “Method for producing cell aggregate” (TOPPAN Holdings Inc., priority 2021, dated 2026).
“Also recorded” adds a separate entry of the source.

How the values were obtained:
[1] = system: PXB cells, SEC and LX2; experiment: Aggregation behavior of cells treated with heparin/collagen (live-cell confocal observation); assay type: cell-based, Human; settings: 0.2 mg/mL collagen, 0.5 mg/mL heparin in 100 mM Tris-HCl; 96-well microplate; 2 hours after seeding; FIG. 2
Protocol: PXB cells, SEC and LX2 were used as cells.
The collected cells were mixed at the following ratios and cell amounts to obtain a cell mixture. • total amount of cells: 300,000 cells • cell proportions in tissue: • PXB cells: 65%·SEC: 25%·LX2: 10% Step 1-4
(§1) 100 μL of each of the following solutions was added to the cell mixture at room temperature, suspended until the cells were no longer visible, and then centrifuged (400 g×2 min) to obtain a viscous component. Here, regardless of the presence of heparin and collagen, it was confirmed in advance that the pH of each solution was approximately around 7.4. • (1) 100 mM Tris-HCl buffer solution • (2) collagen-containing solution (0.2 mg/mL collagen in 100 mM Tris-HCl buffer solution*) • (3) collagen and heparin-containing solution (0.2 mg/mL collagen and 0.5 mg/mL heparin in 100 mM Tris-HCl buffer solution) • *Since collagen quickly gelled in a neutral solution at room temperature, equal amounts of a 0.4 mg/mL collagen in 5 mM acetate buffer solution and a 200 mM Tris-HCl buffer solution prepared in advance were mixed in each of the above solutions and used. Step 1-5
After the supernatant was removed from the solution containing the viscous component, HCM was added so that the final volume of the solution was a solution amount of 100 μL to obtain a cell suspension. […]

[2] = system: MRP2; experiment: MRP2 immunostaining and image analysis of hepatotoxicity model formed in fibrin gel; assay type: cell-based, Human; settings: 3 days of culture; for expression of MRP2 (fluorescence): 0.2 mg/mL collagen and/or 0.5 mg/mL heparin
Protocol: Regarding hepatotoxicity models treated with each solution, it was evaluated whether there was a difference in the state of adhesion between hepatocytes.
A cell mixture with the following proportions and cell amounts was obtained in the same procedures as Steps 1-1 to 1-3 in Test Example 1. • total amount of cells: 300,000 cells • cell proportions in tissue: • PXB cell: 65%·SEC: 25%·LX2: 10% Step 2-2
After the supernatant was removed from the solution containing the viscous component obtained in Step 2-2, a 20 U/mL thrombin solution (solvent: HCM) was added so that the final volume of the solution was a solution amount of “the number of wells to be seeded”×2 μL to obtain a cell suspension.
2 μL of a 10 mg/mL fibrinogen solution was seeded on a 48-well microplate to form droplets and each cell suspension obtained in Step 2-3 was then added into the droplets, and then left in an incubator for 1 hour to form a fibrin gel.
0.5 mL of HCM (containing Endothelial Cell Growth Supplement) was added to each well in which the fibrin gel was formed.
After HCM was added, culture was continued for 3 days in each well in which the fibrin gel was formed.
After 3 days of culture, the 48-well microplate was removed from the incubator, the medium was removed, washing with PBS was performed, and 300 μL of a 4% paraformaldehyde·phosphate buffer solution (hereinafter referred to as PFA) was then added to each well to fix a hepatotoxicity model (3D model). Then, the PFA was washed thoroughly and removed.
100 μL of a 0.2 (v/v) % TRITON/1 (w/v) % BSA PBS solution (hereinafter referred to as a BSA solution) was added to each well, and left at room temperature for 2 hours.
Anti-MRP2 antibodies were diluted 100-fold with a BSA solution to obtain a primary antibody solution. 100 μL of the primary antibody solution was added to each well and left at 4° C. for 24 hours. Then, the primary antibody solution was washed thoroughly and removed.
Secondary antibodies were diluted 200-fold with a BSA solution to obtain a secondary antibody solution. 100 μL of the secondary antibody solution was added to each well, shielded from light and left at room temperature for 1 hour. Then, the secondary antibody solution was washed thoroughly and removed, and 100 μL of PBS was added to each well.
Images were captured under a confocal microscope. […]
The intensities of the captured images were summed to obtain a fluorescence observation image of each hepatotoxicity model (3D model). […]

[3] = Gelation of neutral collagen solution at room temperature; assay type: physicochemical; settings: pH 7.4, room temperature
Protocol: as §1
Since collagen quickly gelled in a neutral solution at room temperature, equal amounts of a 0.4 mg/mL collagen in 5 mM acetate buffer solution and a 200 mM Tris-HCl buffer solution prepared in advance were mixed in each of the above solutions and used. […]

[4] = system: bile canaliculi; experiment: Bile acid assay (CLF) confirming formation of bile canaliculi in hepatotoxicity model; assay type: cell-based, Human; settings: collagen 0.3 mg/mL, 6 days of culture
Protocol: A hepatotoxicity model was produced according to the same method as in the method described in Test Examples 1 and 2. However, the collagen concentration was 0.3 mg/mL, and the heparin concentration was 0.05 mg/mL, 0.15 mg/mL, 0.5 mg/mL, or 5.0 mg/mL (all final concentrations).
After 6 days of culture, the medium was replaced with 300 μL of a medium containing 5 μM CLF (FITC-labeled bile acid CORNING #451041) on which the following operation was performed (this assay was performed while cells were alive). After being left in the incubator for 20 min, the tissue was washed with PBS 5 times. The medium was replaced, and observation was performed under a fluorescence microscope.
FIG. 6, FIG. 7, FIG. 8, and FIG. 9 show the results of fluorescence observation after a medium containing CLF was incubated for the hepatotoxicity models produced with different heparin concentrations. […] In each drawing, the scale bar indicates 500 μm. In normal live tissue in which bile canaliculi were favorably formed, it was thought that, since hepatocytes excreted bile acids taken up from the outside of the live tissue into the bile canaliculi, the intensity of fluorescence derived from FITC retained in the cells was low after the CLF treatment.

| Substance | aggregation of cells [1] | expression of MRP2 (fluorescence) ([2]; versus control, FIG. 3) | aggregation of cells in hepatotoxicity model ([2]; 0.2 mg/mL collagen, FIG. 3) | gelation of solution at room temperature [3] | expression intensity percentage of MRP2 (expression area percentage per area, image analysis) ([2]; versus control, FIG. 5) | excretion of CLF taken into hepatocytes into the bile canaliculi ([4]; heparin 0.15, 0.5 or 5.0 mg/mL, 5 μM CLF 20 min, FIG. 7-9, (hydrochloride)) | intensity of fluorescence derived from FITC retained in the cells with increasing heparin concentration ([4]; heparin concentration increased, 5 μM CLF) |
| --- | --- | --- | --- | --- | --- | --- | --- |
| collagen | aggregation of cells was significantly promoted | expression of MRP2 tended to decrease significantly | cells tended to aggregate excessively | quickly gelled at room temperature |  |  |  |
| heparin (hydrochloride) |  | fluorescence was enhanced as a whole compared to control conditions |  | did not gel at room temperature for a long time | higher expression intensity percentage of MRP2 than the control | CLF taken into hepatocytes was more efficiently excreted into the bile canaliculi; also recorded: CLF taken into hepatocytes was easily excreted into the bile canaliculi | the intensity of fluorescence derived from FITC retained in the cells decreased |
